Measurements reported in patent publication US8293979B2, “Weed controller metabolism proteins, genes, thereof and use of the same” (Sumitomo Chemical Company, Limited, priority 2001, dated 2012).

Assays:
[1] = tested on: present invention protein (A2); test: Metabolism of compounds by the present invention protein (A2), reaction solution, HPLC; type: in vitro ADME, Saccharopolyspora taberi JCM 9383t; details: 5 ppm of compound, components A, B, C, 20 μl supernatant fraction of Example 7(2), 30° C. for 10 minutes
[2] = tested on: present invention protein (A19); test: Metabolism of compounds by the present invention protein (A19), reaction solution, HPLC; type: in vitro ADME, Streptomyces griseus IFO 13849T; details: 12.5 ppm of compound, components A, B, C, 20 μl supernatant fraction of Example 55(2), 30° C. for 10 minutes
[3] = tested on: present invention protein (A14); test: Metabolism of compounds by the present invention protein (A14), reaction solution, HPLC; type: in vitro ADME, Streptomyces glomerochromogenes IFO 13673t; details: 5 ppm of compound, components A, B, C, 20 μl supernatant fraction of Example 38(2), 30° C. for 10 minutes
[4] = tested on: present invention protein (A11); test: Metabolism of compounds by the present invention protein (A11), reaction solution, HPLC; type: in vitro ADME, Streptomyces nogalator IFO13445; details: 5 ppm of compound, components A, B, C, 20 μl supernatant fraction of Example 32(2), 30° C. for 10 minutes
Experimental: There was prepared 100 μl of a reaction solution of 50 mM potassium phosphate buffer (pH7.0) containing 5 ppm of compound (XII), 3 mM of […] (hereinafter, referred to as “component A”) (Oriental Yeast Company), 1 mg/ml of a ferredoxin derived from spinach (hereinafter referred to as “component B”) (Sigma Company), 0.15 U/ml of ferredoxin reductase (hereinafter, referred to as “component C”) (Sigma Company) and 20 μl of the supernatant fraction recovered in Example 4(2). The reaction solution was maintained at 30° C. for 10 minutes. Further, there was prepared and maintained similarly 100 μl of a reaction solution of a 50 mM potassium phosphate buffer (pH 7.0) having no addition of at least one component utilized in the composition of the above reaction solution, selected from component A, component B, component C and the supernatant fraction prepared in Example 4(2). Ten microliters (10 μl) of 2N HCl and 500 μl of ethyl acetate were added and mixed into each of the reaction solutions after the maintenance. The resulting reaction solutions were centrifuged at 8,000×g to recover 490 μl of the ethyl acetate layer. After drying the ethyl acetate layers under reduced pressure, the residue was dissolved in 100 μl of 50 mM of potassium phosphate buffer (pH7.0). Forty microliters (40 μl) of the fraction solutions (hereinafter, the fraction solution derived from the reaction solution containing component A, component B, component C and 20 μl of supernatant fraction recovered in Example 4(2) is referred to as “(XII) metabolism solution (A1);” further, the fraction solution derived from the reaction solution containing no component A, no component B, no component C and no supernatant fraction recovered in Example 4(2) is referred to as “(XII) control solution (A1)”) were analyzed on a HPLC. Compared to the concentration of compound (XII) detected from (XII) control solution (A1), the concentration of compound (XII) detected from (XII) metabolism solution (A1) was lower. Further a peak, which was not detected from the (XII) control solution (A1), was detected from the (XII) metabolism solution (A1). Mass spectrometry was conducted for the compound contained in such a peak. […]
Other than utilizing 20 μl of the supernatant fraction recovered in Example 32(2) instead of 20 μl of the supernatant fraction recovered in Example 4(2), the reaction solutions were prepared and maintained in accordance with the method described in Example 41(2). […] Compared to the concentration of compound (XII) detected from (XII) control solution (A11), the concentration of compound (XII) detected from (XII) metabolism solution (A11) was lower. Further a peak, which was not detected from the (XII) control solution (A11), was detected from the (XII) metabolism solution (A11). […]

[5] = tested on: present invention protein (A3); test: Metabolism of compounds by the present invention protein (A3), reaction solution, HPLC; type: in vitro ADME, Streptomyces testaceus ATCC21469; details: 5 ppm of compound, components A, B, C, 20 μl supernatant fraction of Example 12(2), 30° C. for 10 minutes
[6] = tested on: leaf pieces of the tobacco to which the present invention DNA (A1)S has been introduced; test: Evaluation of the resistance utilizing a leaf piece of the present invention DNA (A1)S transgenic tobacco; type: cell-based; details: 1 point continuously grew, 0.5 halfly withered, 0 turned white and withered
Experimental: Next, other than culturing overnight the transgenic agrobacterium bearing the above plasmid at 30° C. in LB liquid medium containing 25 mg/L kanamycin, said agrobacterium were utilized to introduce genes into tobacco according to the method described in Example 19. There were obtained, respectively, transgenic tobaccos which have incorporated the T-DNA region of pBI-NdG6-rSt-657soy or pBI-NdG6-rSt12-657soy.
Leaves were taken from 35 transgenic tobaccos obtained in Example 47(9). Each leaf was divided into pieces in which each piece was 5 to 7 mm wide. Leaf pieces were planted onto MS agar medium containing 0, 0.05, 0.1 or 0.2 mg/L of compound (II) and cultured in the light at room temperature. On the 11th day of culturing, the herbicidal damage of each of the leaf pieces was observed. Further, leaf pieces were planted onto MS agar mediums containing 0, 0.01, 0.02, 0.05 or 0.1 mg/L of compound (XII) and cultured in the light at room temperature. On the 7th day of culturing, the herbicidal damage of each of the leaf pieces was observed. […] An average score for each group was determined by scoring 1 point to a leaf piece that continuously grew, 0.5 points to a halfly withered leaf piece in which chemical damage was observed, and 0 points to a leaf piece which turned white and had withered. […]

Row | SMILES | concentration of the compound detected from metabolism solution (A2) compared to control solution (A2) [1] | concentration of the compound detected from metabolism solution (A19) compared to control solution (A19) [2] | concentration of the compound detected from metabolism solution (A14) compared to control solution (A14) [3] | concentration of the compound detected from metabolism solution (A11) compared to control solution (A11) [4] | concentration of the compound detected from metabolism solution (A3) compared to control solution (A3) [5] | average score of leaf pieces compared with the wild type tobacco ([6]; MS agar mediums containing 0, 0.01, 0.02, 0.05 or 0.1 mg/L of compound (XII), 7th day) | average score of leaf pieces compared with the wild type tobacco ([6]; MS agar medium containing 0, 0.05, 0.1 or 0.2 mg/L of compound (II), 11th day)
1 | Cn1c(C(F)(F)F)cc(=O)n(-c2cc(Oc3ccccc3OCC(=O)O)c(Cl)cc2F)c1=O [compound (XIII)] | lower | lower | lower | lower | lower | – | –
2 | Cn1c(C(F)(F)F)cc(=O)n(-c2cc(Oc3cccnc3OCC(=O)O)c(Cl)cc2F)c1=O [compound (XII)] | lower | lower | lower | lower | lower | higher | –
3 | C[C@@H](Oc1cc(-n2c(=O)cc(C(F)(F)F)n(C)c2=O)c(F)cc1Cl)C(=O)O [compound (II)] | – | – | – | – | – | – | higher
